For orientation: IC50 means the concentration at which inhibition is half-maximal.

For 1 compound, IC50 results are on record in article PMC7226045, “Ensartinib (X-396) Effectively Modulates Pharmacokinetic Resistance Mediated by ABCB1 and ABCG2 Drug Efflux Transporters and CYP3A4 Biotransformation Enzyme” (Cancers, 2020).

The target of this assay is T1, CYP2C9 (Homo sapiens, UniProt P11712).
T1 construct: purchased Thermo Fisher Scientific; host or cells: insect microsomal fractions
The assay can be described thus: Vivid CYP screening kit, recombinant CYP2C9. The format is biochemical. The settings on record: recombinant enzyme, 15 min incubation, absolute IC50; read-out: CYP2C9 inhibition IC50. How it is done: CYP inhibitory assay was performed as described previously. Experiments were performed with commercial Vivid CYP screening kits containing insect microsomal fractions enriched with a specific human CYP isoform, human CYP reductase, and in some cases, human cytochrome b5. The potential inhibitory activity of ensartinib toward CYP1A2, CYP2B6, CYP2C8, CYP2C9, CYP2C19, CYP2D6, CYP3A4, and CYP3A5 (i.e., all CYP isoforms that drug regulatory authorities recommend for testing of inhibition by new molecular entities) was then examined. Experiments were performed using a kinetic mode in black 96-well plates according to the manufacturer´s instructions. Briefly, 5-point serial dilutions of ensartinib or the model inhibitor recommended by the manufacturer in buffer were transferred into the wells, then a master mix consisting of a CYP isoenzyme with an NADPH regeneration system in buffer was added. After a 10 min pre-incubation, the reaction was initiated by adding a mixture of NADP^+ and the appropriate Vivid substrate, after which fluorescence was measured at 1 min intervals for 60 min using an Infinite M200 Pro microplate reader (Tecan, Männedorf, Switzerland). The enzyme concentration and incubation interval used for data evaluation (15 min) placed the systems within the linear regions of the appropriate reaction velocity curves. […]

T1 sequence (P11712 whole entry): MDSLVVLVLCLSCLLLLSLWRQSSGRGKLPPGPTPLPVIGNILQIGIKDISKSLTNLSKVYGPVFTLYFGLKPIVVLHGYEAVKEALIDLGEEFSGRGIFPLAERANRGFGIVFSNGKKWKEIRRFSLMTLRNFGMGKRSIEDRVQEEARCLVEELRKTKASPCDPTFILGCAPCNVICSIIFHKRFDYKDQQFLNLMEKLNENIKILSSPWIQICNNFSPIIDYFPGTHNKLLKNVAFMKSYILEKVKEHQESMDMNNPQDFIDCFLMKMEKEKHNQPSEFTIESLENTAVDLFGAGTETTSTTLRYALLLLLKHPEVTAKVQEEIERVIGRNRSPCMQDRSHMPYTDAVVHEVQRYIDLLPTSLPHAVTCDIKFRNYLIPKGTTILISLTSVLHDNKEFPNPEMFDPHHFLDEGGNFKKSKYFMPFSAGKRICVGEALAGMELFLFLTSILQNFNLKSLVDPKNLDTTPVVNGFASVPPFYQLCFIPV

For the compound `C[C@@H]1CN(C(=O)c2ccc(NC(=O)c3cc(O[C@H](C)c4c(Cl)ccc(F)c4Cl)c(N)nn3)cc2)C[C@H](C)N1` [ensartinib, Ensartinib], the IC50 was determined as 4.93 µM.
